From the SangsterLogP compilation

Test: method code SF-AS, from DOI: 10.1021/jm00146a003, PMID: 4020837
Conditions: pH 7.4

| logD | SMILES |
| --- | --- |
| 0.41 | COCC(O)Cn1cnc([N+](=O)[O-])c1I (centres undefined) |
| 1 | Cn1cnc([N+](=O)[O-])c1I |
| 0.46 | O=C(Cn1cnc([N+](=O)[O-])c1I)Nc1cccnc1 |
| 0.57 | CCOC(=O)Cn1cnc([N+](=O)[O-])c1I |
| 0.93 | CCOC(=O)Cn1cnc(I)c1[N+](=O)[O-] |

The remaining lines, values behind:

| SMILES | logD |
| --- | --- |
| O=[N+]([O-])c1nc[nH]c1I | 0.28 |
| O=C(Cn1cnc([N+](=O)[O-])c1I)NCc1ccc[n+]([O-])c1 | -1.4 |
| Cn1cnc(I)c1[N+](=O)[O-] | 1.29 |
| COCC(O)Cn1cnc(I)c1[N+](=O)[O-] (centres undefined) | 0.89 |
